Data as given in EP1200406B1, “CYCLIC AMIDES AND IMIDES HAVING SELECTIVE ANTAGONIST ACTIVITY AT ALPHA-1D ADRENERGIC RECEPTOR” (RECORDATI INDUSTRIA CHIMICA E FARMACEUTICA S.p.a., priority 1999, dated 2001).

Test system: conscious rats with partial bladder-outlet obstruction
Test: Cystometry in conscious rats with infravesical outflow obstruction by partial urethral ligature
Format: in vivo, Female Sprague Dawley rats
Settings: 0.3 mg/kg i.v.
Protocol: Effects on cystometric parameters in conscious rats with […] outflow obstruction by partial urethral ligature. Female Sprague Dawley rats of 225-275 g body weight [Crl: CD(SD)BR, from Charles River Italia, Calco, Como] were used. The animals were housed with free access to food and water and maintained on a forced 12 hour alternating light dark cycle at 22-24°C for at least one week, except during experiment performance. In order to obtain a partial obstruction of the urethra, the method previously reported by Malmgren (Malmgren A. et al., J. UroL 137, 1291-1294, 1987; Neurourol. […] Pharmacol. […] The rats were anaesthetised with intraperitoneal (i.p.) administration of 3 ml/kg of Equithensin solution (pentobarbital 1.215 g, chloral hydrate 5.312 g, magnesium sulphate 2.657 g, ethanol 12.5 ml, propylene glycol 49.5 ml, distilled water to 125 ml of final volume) and then the bladder and proximal urethra were exposed via an abdominal midline incision. A silk ligature was placed around the urethra and tied in the presence of an intraluminally placed indwelling polyethylene cannula with an outside diameter of 1.22 mm. After removing the polyethylene cannula, the abdominal wall was sutured and then antibiotic medication (penicillin G 200000 I.U./kg and streptomycin 260 mg/kg i.p.) was performed. After three weeks of obstruction the animals were prepared for cystometry. The animals, anesthetized as reported above, were placed in a supine position and a midline incision was made in the shaved and cleaned abdominal wall. The urinary bladder was exposed and gently freed from adhering tissues, emptied and then cannulated, via an incision at the dome, with a polyethylene cannula (0.58 mm inside diameter and 0.96 mm outside diameter), which was permanently sutured with silk thread. For intravenous bolus injection a similar polyethylene tubing filled with physiological saline containing sodium heparin (40 I.U./ml) was inserted into the jugular vein. The cannulae were exteriorised through a subcutaneous tunnel in the retroscapular area, where they were connected with a plastic adapter, in order to avoid the risk of removal by the animal. Two days after bladder catheter implantation, the animals, fasted overnight, were placed in Bollman's cages or in particular plastic cages which allowed some lateral and back and forth movement of the rats, allowing measurements of micturition volume (MV). After a stabilisation period of 20 minutes, the free tip of the bladder cannula was connected to a pressure transducer and to a peristaltic pump for a continuous infusion of warm saline solution (37° C), into the urinary bladder. In order to shorten the time-period of saline infusion necessary to provoke micturition in the obstructed rats, a filling rate of the bladder of 10 ml/h was chosen. During infusion of saline into the bladder, the intravesical pressure signal and urine volume micturated were continuously recorded on chart polygraph. […] BVC (in ml) was defined as the volume of saline infused into the bladder from the start of the infusion to micturition. […] MV (in ml), defined as the volume of expelled urine during each single micturition, was recorded by means of a force displacement transducer connected to the polygraph and measuring the urine collected in a small reservoir placed under the cage. Basal values of the parameters above reported were evaluated as the mean of the values obtained in two complete and reproducible cystometrograms before treatment (time 0). Then the animals were treated intravenously by bolus injection with the test compound under continuous infusion of saline into the bladder. The parameter changes after compound injection (first cystometrogram and those recorded approximately after 30 and 60 minutes) were compared with the values recorded before injection (basal values).

For `O=C1CC2(CCCC2)CC(=O)N1CCN1CCN(c2cc(Cl)ccc2Cl)CC1` [Example 1, 8-{2-[4-(2,5-Dichlorophenyl)-1-piperazinyl]-ethyl}-8-azaspiro[4.5]decane-7,9-dione], the “BVC mean values, change” value was 20-30%, the “changes in MP values” was “no significant changes” and the “BVC (bladder volume capacity), % changes vs basal values” (from here on “BVC … % changes vs basal values”) (30 minutes) was 22%. The “MP (micturition pressure), % changes vs basal values” (from here on “MP (micturition pressure), % changes”) (30 minutes) was -7%, the “MV (micturition volume), % changes vs basal values” (“MV (micturition volume), % changes” for short) (30 minutes) was 42% and the “NMC – A (non-micturition contractions, amplitude), % changes vs basal values” (30 minutes) was -33%. The “NMC – F (non-micturition contractions, frequency), % changes vs basal values” (30 minutes) was -38%, the “BVC … % changes vs basal values” (60 minutes) was 30% and the “MP (micturition pressure), % changes” value (60 minutes) was -6%. The “MV (micturition volume), % changes” value (60 minutes) was 28%, the “NMC – A (non-micturition contractions, amplitude), % changes vs basal values” (60 minutes) was -38% and the “NMC – F (non-micturition contractions, frequency), % changes vs basal values” (60 minutes) was -23%. The “BVC … % changes vs basal values” (First cystometrogram) was 26%, the “MP (micturition pressure), % changes” value (First cystometrogram) was -2% and the “MV (micturition volume), % changes” value (First cystometrogram) was 35%. For the same compound, the “NMC – A (non-micturition contractions, amplitude), % changes vs basal values” (First cystometrogram) was -35%, the “NMC – F (non-micturition contractions, frequency), % changes vs basal values” (First cystometrogram) was -24% and the “frequency and amplitude of the non-voiding contractions” value (immediately after the injections) was “rapid decrease”.
